From patent US6902744B1, “Exendin agonist formulations and methods of administration thereof” (Amylin Pharmaceuticals, Inc., priority 1999, dated 2005)

Tested on: Sprague-Dawley rats
Assay: Insulinotropic action during an intravenous glucose challenge in rats
Format: in vivo
Settings: peptide 30 pmol/kg/min i.v.; n.s. versus saline

Substance: GLP-1[7-36]NH2
- increase of 60-min insulin AUC versus saline-treated rats: 20%
